From patent US20120302748A1, “TREATMENT OR PROPHYLAXIS OF PROLIFERATIVE CONDITIONS” (THE UNIVERSITY COURT OF THE UNIVERSITY OF DUNDEE, priority 2009, published 2012)
Like-named read-outs stand apart in the source and are kept apart here.

What was measured:
UT-SCC-14 tumour cells = assay: Cytotoxicity in primary HNSCC tumour cell line UT-SCC-14 (MTS assay); conditions: Homo sapiens, 72 h, read-out: cytotoxicity IC50 UT-SCC-14
Method: A UT-SCC-14 tumour cell suspension at 2000 cells per well on a 96-well plate and if necessary add fresh media to give a total volume per well of 100 μl. The cells were allowed to attach for 4 h in an incubator. […] The final concentration of ethanol 0.2% was found not to effect the growth characteristics of the UT-SCC-14 cell line. The UT-SCC-14 cells were incubated with test compound for 72 h after which time all aspirated and replaced with 100 μl of fresh medium to compensate for the loss of medium due to evaporation. The cells were incubated with 20 μl of the MTS assay reagent for 1.5 h and the absorbance per well at 510 nm measured using a plate reader. The mean absorbance and standard deviation for each test compound concentration was calculated versus a series of controls including (a) cells plus medium, (b) cell plus medium containing ethanol 0.2%, (c) medium alone, and (d) medium containing ethanol 0.2% and a range of test compound concentrations from 0 to 100 μmol dm^−3.

UT-SCC-8 = assay: cells; conditions: Homo sapiens, 72 h, read-out: cytotoxicity IC50 UT-SCC-8
UT-SCC-9 = assay: cells; conditions: Homo sapiens, 72 h, read-out: cytotoxicity IC50 UT-SCC-9
UT-SCC-10 = assay: cells; conditions: Homo sapiens, 72 h, read-out: cytotoxicity IC50 UT-SCC-10
[1] = tested on: UTSCC-14 primary human tumour xenograft; assay: Anti-tumour activity in primary human tumour xenograft model; format: in vivo, nude mice; conditions: for Tumour growth delay at 28 days: 2 cycles daily for 5 days/2 days off
Method: Primary UTSCC-14 cell lines 3×10^6 were implanted subcutaneously in the flank of nude mice. Mice were randomized to 10 animals per group when the tumour volume was 100 to 150 mm^3. SU046-04 was given intraperitoneally at 12, 25 and 50 mg/Kg in PBS versus versus vehicle alone for 2 cycles: daily for 5 days/2 days off. Tumour volume was measured every 4 days using calipers. […] Tumour growth delay at 28 days was 31% at 12 mg/Kg, 56% at 25 mg/Kg, and 90% at 50 mg/Kg with 4/10 complete responses.

in vitro = conditions: Chinese hamster
CYP1B1 [2] = target: T1, CYP1B1 (Homo sapiens, UniProt Q16678); assay: CYP1B1 substrate inhibition, P450-Glo Luciferin-CEE luminescent assay; conditions: human
T1 sequence (Q16678 1-543): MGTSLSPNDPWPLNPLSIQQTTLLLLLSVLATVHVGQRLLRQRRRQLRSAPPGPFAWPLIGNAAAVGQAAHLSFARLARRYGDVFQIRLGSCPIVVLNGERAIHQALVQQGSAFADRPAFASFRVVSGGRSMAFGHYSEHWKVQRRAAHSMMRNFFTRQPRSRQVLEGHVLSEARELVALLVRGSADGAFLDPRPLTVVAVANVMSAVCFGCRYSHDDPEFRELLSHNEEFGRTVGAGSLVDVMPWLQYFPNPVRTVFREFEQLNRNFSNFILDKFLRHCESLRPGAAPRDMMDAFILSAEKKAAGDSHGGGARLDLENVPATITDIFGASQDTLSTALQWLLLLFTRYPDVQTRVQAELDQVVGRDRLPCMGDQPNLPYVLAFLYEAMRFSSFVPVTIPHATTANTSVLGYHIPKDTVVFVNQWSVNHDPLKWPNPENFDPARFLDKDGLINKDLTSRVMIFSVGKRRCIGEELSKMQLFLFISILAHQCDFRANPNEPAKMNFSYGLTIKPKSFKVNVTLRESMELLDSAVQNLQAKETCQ

CHO/CYP1B1 cells [3] = tested on: CHO/CYP1B1 cells
CHO/CYP1B1 cells [4] = assay: cells; conditions: Cricetulus griseus
CYP1B1 [5] = target: T1, CYP1B1; assay: CYP1B1 substrate prediction model (Gaussian Kernel weighted k-NN); conditions: predicted versus actual
CYP1A1 [6] = assay: in vitro; conditions: Chinese hamster
[7] = target: T2, human supersomal CYP1B1 plus reductase (Homo sapiens, UniProt Q16678); assay: CYP1B1 substrate inhibition, P450-Glo Luciferin-CEE luminescent assay; conditions: final concentration of 0.5 mmol dm^−3; triplicate, mean ± standard deviation
T2 sequence (Q16678 1-543): T1 sequence (Q16678 1-543)

CYP1A1 [8] = target: T3, CYP1A1 (Homo sapiens, UniProt P04798); conditions: inhibitor at 10 nmol dm^−3
T3 sequence (P04798 1-512): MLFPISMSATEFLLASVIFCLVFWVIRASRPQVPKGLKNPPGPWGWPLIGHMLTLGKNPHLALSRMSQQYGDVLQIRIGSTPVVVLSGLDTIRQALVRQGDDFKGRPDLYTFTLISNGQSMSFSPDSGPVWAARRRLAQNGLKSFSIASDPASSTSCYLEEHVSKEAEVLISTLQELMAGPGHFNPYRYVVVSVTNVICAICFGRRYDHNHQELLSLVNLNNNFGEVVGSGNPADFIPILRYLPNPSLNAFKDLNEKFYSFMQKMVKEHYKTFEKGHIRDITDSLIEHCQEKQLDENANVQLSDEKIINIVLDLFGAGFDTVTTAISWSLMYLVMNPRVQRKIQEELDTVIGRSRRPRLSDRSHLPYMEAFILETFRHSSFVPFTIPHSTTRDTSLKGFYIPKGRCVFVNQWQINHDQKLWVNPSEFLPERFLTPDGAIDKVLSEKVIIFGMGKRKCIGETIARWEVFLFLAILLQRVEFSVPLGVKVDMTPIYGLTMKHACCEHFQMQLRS

CYP1A1 [9] = target: T3, CYP1A1; conditions: inhibitor at 10 nmol dm^−3; remark: listed apart in the source

In the case of `CC[C@@]1(O)C(=O)OCc2c1cc1n(c2=O)Cc2cc3cc(OCc4cc5cc(OC)cc(OC)c5o4)ccc3nc2-1` [SU037-04], the IC50 (UT-SCC-14 tumour cells) is reported as 120 ± 70 nM, the IC50 (UT-SCC-8) is reported as 560 ± 40 nM and the IC50 (UT-SCC-9) is reported as 220 ± 80 nM. The IC50 (UT-SCC-10) was 210 ± 40 nM.
With `COc1cc(OC)c2oc(COP(=O)(NCCBr)NCCBr)cc2c1` [SU046-04] the IC50 (UT-SCC-14 tumour cells) was 20 ± 10 nM, the “Tumour growth delay at 28 days” value ([1]; 12 mg/Kg intraperitoneally) was 31% and the “Tumour growth delay at 28 days” value ([1]; 25 mg/Kg intraperitoneally) was 56%. The complete responses ([1]; 50 mg/Kg intraperitoneally) was 4/10, the “Tumour growth delay at 28 days” value ([1]; 50 mg/Kg intraperitoneally) was 90% and the “adverse effects / body weight loss” value ([1]; after highest exposure 250 mg/Kg) was “No observed adverse effects or significant body weight loss”. For the same compound, the “inhibition of tumour growth versus vehicle” value ([1]; all three treatment arms 12, 25 and 50 mg/Kg) was “significant inhibition of tumour growth”, the IC50 (in vitro; Cytotoxicity (IC50) CHO 72 h) was 20300 ± 1200 nM and the IC50 (in vitro; Cytotoxicity (IC50) CHO 96 h) was 16200 ± 200 nM. For the same compound, the IC50 (in vitro; cytotoxicity IC50 in wild-type CHO cells) was at least 10000 nM, the inhibition at 0.5 mmol dm^−3 (CYP1B1 [2]) was 96.45 ± 0.22% and the “IC50 ratio 72 h (CHO / CHO/CYP1B1)” value (CHO/CYP1B1 cells [3]) was 5075. The IC50 (CHO/CYP1B1 cells [4]; 72 h, read-out: Cytotoxicity (IC50) CHO/CYP1B1 72 h) was 4 ± 2 nM, the IC50 (CHO/CYP1B1 cells [4]; 96 h, read-out: Cytotoxicity (IC50) CHO/CYP1B1 96 h) was 3 ± 1 nM and the “% CYP1B1 substrate inhibition accuracy” value (CYP1B1 [5]) was 96%. The IC50 (CYP1A1 [6]) was 20300 ± 2100 nM.
For `O=P1(N(CCCl)CCCl)NCCCO1` (stereo not drawn) [cyclophosphamide], the “toxicity in the CHO cytotoxicity assay” value (CHO cells) was “non-toxic”.
For `C[C@]12CC[C@@H]3c4ccc(O)cc4CC[C@H]3[C@@H]1CC[C@@H]2O` [β-estradiol, reference compound], the “% CYP1B1 substrate inhibition actual” value [7] was 72.34 ± 0.45% and the “% CYP1B1 substrate inhibition accuracy” value (CYP1B1 [5]) was 95%.
Work on `Cc1cc(=O)oc2cc(OCc3c4ccccc4cc4ccccc34)ccc12` [SU06-02, 7-(anthracen-9-ylmethoxy)-4-methyl-2H-chromen-2-one] yielded a melting point of 216 to 218 °C.
For tetramethoxystilbene, the “Specific activity CHO/CYP1A1 ethoxyresorufin” value (CYP1A1 [8]) was 26 ± 4 pmol resorufin or luciferin min^−1 mg protein^−1, the “Specific activity CHO/CYP1A1 Luciferin-CEE” value (CYP1A1 [9]) was 20 ± 5 pmol resorufin or luciferin min^−1 mg protein^−1 and the “% CYP1B1 substrate inhibition accuracy” value (CYP1B1 [5]) was 98%.
